≈ marks a conversion by molar mass, not a printed value. Where a SMILES comes first, the peptide text is derived from it. [ ]: non-standard residue; d: D form.
What was measured:
[1] = tested on: P. aeruginosa PAO1 (EYFP) pellicle biofilms; assay: Pellicle biofilm assay, viable cell enumeration; assay type: cell-based, Pseudomonas aeruginosa
Procedure: Here, we directly compare the antibiofilm activity of D-CONGA and D-CONGA-Q7 using a mature pellicle biofilm of P. aeruginosa.[22] […] To determine the susceptibility of pellicle biofilms to D-CONGA and D-CONGA-Q7, we cultured 2-day-old biofilms as described in the Methods section. The coverslip-adhered biofilms were exposed to challenge solution for 24 h prior to staining with SYTOX red and imaging with CLSM for EYFP, which indicates live cells, and for SYTOX Red which stains dead cells and extracellular DNA. […] The % cell survival was quantitated in two ways: (i) COMSTAT was used to compare biofilm biomass in CLSM images by estimating the biofilm biovolume, which is calculated as the overall volume/substratum area (μm^3/μm^2).[24],[25] […] (ii) The biofilms were dispersed mechanically for subsequent enumeration of viable cells such that % survival is expressed as the ratio (CFUuntreated biofilm/CFUtreated biofilm).
The susceptibility of biofilm-embedded P. aeruginosa cells to the antimicrobial peptides was studied as reported previously[23] using a P. aeruginosa PAO1 strain expressing enhanced yellow fluorescent protein (EYFP).[22] The EYFP-expressing P. aeruginosa strain was routinely grown in Pseudomonas Isolation (PI) media (20 g/L peptone, 0.3 g/L, MgCl2·6H2O, 10 g/L, K2SO4, 25 mg/L irgasan, and 20 mL/L glycerol, pH 7.0). […] Iron supplementation was carried out by addition of a small volume of filter-sterilized 10 mM (NH4)2Fe(SO4)2 (pH ∼ 2.0) solution.
In brief: Starter cultures (5 mL PI media supplemented with 10 μM Fe) were grown (14 h) from a single-colony shaking (220 rpm) at 37 °C. To grow the pellicle biofilms, starter cultures were diluted to OD600 = 0.001 in 4 mL of PI media supplemented with 20 μM Fe, placed in 35 × 10 mm Petri dishes, and incubated statically at 30 °C for 48 h. The pellicles were harvested using circular (1.5 cm diameter) glass coverslips by gently allowing the surface of a coverslip to contact the biofilm at the air–liquid interface. […]

[2] = tested on: Acinetobacter baumannii (PDR) Tulane isolate; settings: PDR) Tulane isolate
[3] = tested on: K. pneumoniae clinical isolates; assay: microbe, parasite or virus in culture; settings: clinical isolates

For `CC(C)C[C@@H](NC(=O)[C@@H](CCC(N)=O)NC(=O)[C@@H](CCCNC(=N)N)NC(=O)[C@@H](CCCNC(=N)N)NC(=O)[C@@H](C)NC(=O)[C@@H](Cc1c[nH]c2ccccc12)NC(=O)[C@@H](CCCNC(=N)N)NC(=O)[C@H](N)CCCNC(=N)N)C(=O)N[C@H](C)C(=O)N[C@H](Cc1ccccc1)C(=O)N[C@H](C)C(=O)N[C@H](Cc1ccccc1)C(=O)N[C@H](CCCNC(=N)N)C(=O)N[C@H](CCCNC(=N)N)C(N)=O` [D-CONGA-Q7] (H-[dR][dR][dW][dA][dR][dR][dQ][dL][dA][dF][dA][dF][dR][dR]-NH2; N-terminus assumed), the “Reduction of biofilm CFU” value ([1]; 2 μM, 48 h pellicle biofilm, 24 h challenge, dispersing and counting viable cells) was 70%, the “Reduction of viable biofilm bacteria” value ([1]; 8 μM peptide, 2-day-old pellicle biofilm, 24 h treatment in AB challenge media, 30 °C) was no less than 90% and the “MIC, AB (PDR)Tulane” value [2] was 1.1 µM (≈ 2.08 µg/mL). For the same compound, the “MIC, KP 6” value [3] was 3.2 µM (≈ 6.05 µg/mL), the “MIC, KP 46” value [3] was 2.2 µM (≈ 4.16 µg/mL) and the “MIC, KP 398” value [3] was 3.8 µM (≈ 7.18 µg/mL). The “MIC, KP (CRE)” value [3] was 2.0 µM (≈ 3.78 µg/mL), the “MIC, KP ATCC 33495” value [3] was 2.4 µM (≈ 4.53 µg/mL) and the “MIC, KP ST258 C2” value [3] was 8.9 µM (≈ 16.8 µg/mL). The “MIC, KP ST258 C3” value [3] was 14 µM (≈ 26.4 µg/mL), the “MIC, KP ST258 I2” value [3] was 1.4 µM (≈ 2.64 µg/mL) and the “MIC, KP ST396” value [3] was 1.9 µM (≈ 3.59 µg/mL).

— paper PMC10111420, “Optimization of Host Cell-Compatible, Antimicrobial Peptides Effective against Biofilms and Clinical Isolates of Drug-Resistant Bacteria” (ACS Infectious Diseases, 2023)
